Tests used:
SGLT1 = target: T1, SGLT1 (Homo sapiens, UniProt P13866); assay: 14C-AMG uptake in BHK cells transfected with SGLT1 (96-well cell-based assay); conditions: 50 μM AMG, 37° C., 90 min
T1 construct: expressed in transfected cells
T1 sequence (P13866 1-664): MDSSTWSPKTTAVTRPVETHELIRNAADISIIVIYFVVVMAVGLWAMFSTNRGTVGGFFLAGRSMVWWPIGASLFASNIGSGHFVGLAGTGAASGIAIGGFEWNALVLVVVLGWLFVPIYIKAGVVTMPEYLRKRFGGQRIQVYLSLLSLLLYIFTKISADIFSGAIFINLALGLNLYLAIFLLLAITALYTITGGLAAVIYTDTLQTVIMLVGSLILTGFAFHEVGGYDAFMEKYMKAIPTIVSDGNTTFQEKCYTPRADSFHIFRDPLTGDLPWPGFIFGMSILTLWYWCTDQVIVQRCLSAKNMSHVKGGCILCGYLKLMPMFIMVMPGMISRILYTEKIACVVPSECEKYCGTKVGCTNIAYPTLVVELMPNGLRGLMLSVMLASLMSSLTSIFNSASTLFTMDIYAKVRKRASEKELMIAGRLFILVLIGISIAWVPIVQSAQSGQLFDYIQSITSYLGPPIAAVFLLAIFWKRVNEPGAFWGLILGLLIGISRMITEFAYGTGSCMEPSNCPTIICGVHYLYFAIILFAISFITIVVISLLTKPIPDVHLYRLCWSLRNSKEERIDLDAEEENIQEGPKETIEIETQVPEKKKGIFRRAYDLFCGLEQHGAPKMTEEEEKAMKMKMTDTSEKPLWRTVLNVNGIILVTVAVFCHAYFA
From the text: (§1) The compounds can be tested for their SGLT inhibition properties by means of BHK cells expressing SGLT1 and SGLT2. The production of the cells and the testing can be carried out as described below.
To construct the SGLT1 expression vector (KL225), the SLC5A1 gene (homologous to NM_000343) was amplified from a cDNA library using standard PCR technology and cloned over NheI/XhoI sites into the pcDNA3.1 expression vector (Invitrogen) containing neomycin as a selection marker. In this vector, transcription uses the enhancer/promoter of human cytomegalovirus.
(§2) The final vector KL225 together with an additional vector containing a dihydrofolate reductase gene as a selection marker was introduced into cells. Transfection into BHK21 cells (ATCC CCL-10), cultivated in DMEM medium (GIBCO/BRL), supplemented with 10% foetal calf serum (FCS) and 20 mM glutamine, was carried out using calcium phosphate transfections according to Graham, F. L. and van der Ebb, A. J. (1973), Virology 52: 456 with 5-20 μg of uncut plasmids for 10^7 cells. Stable transfectants were selected in medium containing 1 mg/ml of G418 (GIBCO/BRL) and 20-5000 nM methotrexate as final concentration, where only cells which expressed the neomycin gene and overexpressed the dhfr gene were able to grow. After growth for 2-3 weeks, the cells were cloned (0.5 cells/well) and the clones were investigated for SGLT expression in radioactivity uptake tests. […]
(§3) A 96-well cell-based assay was developed and adapted to HTS requirements:
(§4) BHK cells (transfected with SGLT1 or SGLT2) were seeded into 96-well microtitre plates (Cultureplates, Perkin Elmer). After at least 24 h, medium was removed, and the cell layer was washed with assay buffer (140 mM NaCl, 2 mM KCl, 1 mM CaCl2, 1 mM MgCl2, 10 mM HEPES, 5 mM Tris, adjusted to pH 7.4 using 1 M KOH). After addition of 40 μl of assay buffer, 50 μl of AMG (50 μM for SGLT1 and 2 mM for SGLT2) in the presence or absence of compounds, the cells were incubated in a total volume of 100 μl at 37° C. for 90 min. Supernatant was removed by suction and discarded. Cells were washed and lysed by addition of 50 μl of water. After 10 min at room temperature, 200 μl of Micrsoscint 40 (Perkin Elmer) were added. The radioactivity was counted in a Topcount microplate scintillation counter (Perkin Elmer). The non-specific uptake was determined in sodium-free assay buffer (266 mM sucrose, 2 mM KCl, 1 mM CaCl2, 1 mM MgCl2, 10 mM HEPES, 5 mM Tris, adjusted to pH 7.4 using 1 M KOH).

SGLT2 = target: T2, SGLT2 (Homo sapiens, UniProt P31639); assay: 14C-AMG uptake in BHK cells transfected with SGLT2 (96-well cell-based assay); conditions: 2 mM AMG, 37° C., 90 min
T2 construct: expressed in transfected cells
T2 sequence (P31639 1-672): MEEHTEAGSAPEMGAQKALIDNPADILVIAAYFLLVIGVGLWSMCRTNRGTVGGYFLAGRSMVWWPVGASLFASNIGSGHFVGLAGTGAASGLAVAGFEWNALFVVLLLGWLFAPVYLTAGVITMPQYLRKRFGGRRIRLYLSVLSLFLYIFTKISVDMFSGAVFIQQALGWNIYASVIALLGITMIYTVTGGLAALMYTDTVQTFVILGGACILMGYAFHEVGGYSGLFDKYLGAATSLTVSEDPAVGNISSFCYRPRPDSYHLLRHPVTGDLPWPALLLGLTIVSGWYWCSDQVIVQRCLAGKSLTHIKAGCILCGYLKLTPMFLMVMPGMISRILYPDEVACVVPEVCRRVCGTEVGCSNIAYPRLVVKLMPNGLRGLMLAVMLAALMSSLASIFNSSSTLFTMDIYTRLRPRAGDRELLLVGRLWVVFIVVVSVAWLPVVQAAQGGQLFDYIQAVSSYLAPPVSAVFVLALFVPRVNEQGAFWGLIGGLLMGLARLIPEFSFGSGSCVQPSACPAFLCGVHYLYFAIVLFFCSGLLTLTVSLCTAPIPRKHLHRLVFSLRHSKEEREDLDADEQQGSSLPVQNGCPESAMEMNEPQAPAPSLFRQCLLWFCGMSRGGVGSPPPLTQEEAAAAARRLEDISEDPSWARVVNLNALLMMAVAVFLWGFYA
From the text: as §1
To construct the SGLT2 expression vector (KL224), the SLC5A2 gene (homologous to NM_003041) was amplified from a cDNA library using standard PCR technology and cloned over NheI/XhoI sites into PCI-neo expression vector (Promega) containing neomycin as a selection marker. In this vector, transcription uses the enhancer/promoter of human cytomegalovirus and the SV40 polyadenylation signal.
as §2, with “KL224” for “KL225”
as §3, §4

Row | SMILES | IC50 (SGLT1) [µM] | IC50 (SGLT2) [µM]
1 | CCNC(=O)c1cc(OC)cc(OC)c1-c1nc2ncccn2c1Nc1c(Cl)ccc(C)c1Cl [Compound A24, 2-[3-(2,6-dichloro-3-methylphenylamino)imidazo[1,2-a]-pyrimidin-2-yl]-N-ethyl-3,5-dimethoxybenzamide] | 0.01 to 1 | 0.01 to 1
2 | COc1cc(OC)c(-c2nc3ncccn3c2Nc2c(Cl)cccc2Cl)c(C(=O)NN)c1 [Compound A18, 2-[3-(2,6-dichlorophenylamino)imidazo[1,2-a]pyrimidin-2-yl]-3,5-dimethoxybenzohydrazide] | > 10 | 1 to 10
3 | Cc1cccc(C)c1Nc1c(-c2ccccc2OCC(N)=O)nc2ncccn12 [Compound A1, 2-{2-[3-(2,6-Dimethylphenylamino)-imidazo[1,2-a]pyrimidin-2-yl]phenoxy}-acetamide] | > 10 | 1 to 10
4 | CNc1nnc(-c2cc(OC)cc(OC)c2-c2nc3ncccn3c2Nc2c(Cl)cccc2Cl)o1 [Compound A3, (2,6-dichlorophenyl)-{2-[2,4-dimethoxy-6-(5-methylamino-1,3,4-oxadiazol-2-yl)phenyl]imidazo[1,2-a]pyrimidin-3-yl}amine] | 0.01 to 1 | 0.01 to 1
5 | CNc1nnc(-c2cccc(Cl)c2-c2nc3ncccn3c2Nc2c(C)cccc2Cl)o1 [Compound A22, {2-[2-Chloro-6-(5-methylamino-1,3,4-oxadiazol-2-yl)phenyl]imidazo[1,2-a]-pyrimidin-3-yl}-(2-chloro-6-methylphenyl)-amine] | 0.01 to 1 | 0.01 to 1
6 | CNc1nnc(-c2cc(OC)cc(OC)c2-c2nc3ncccn3c2Nc2c(Cl)ccc(C)c2Cl)o1 [Compound A23, (2,6-Dichloro-3-methylphenyl)-{2-[2,4-dimethoxy-6-(5-methylamino-1,3,4-oxadiazol-2-yl)phenyl]imidazo[1,2-a]-pyrimidin-3-yl}amine] | 0.01 to 1 | 0.01 to 1
7 | CCNc1nnc(-c2ccccc2-c2nc3ncccn3c2Nc2c(Cl)cccc2Cl)o1 [Compound A15, (2,6-Dichlorophenyl)-{2-[2-(5-ethylamino-1,3,4-oxadiazol-2-yl)phenyl]imidazo-[1,2-a]pyrimidin-3-yl}amine] | 1 to 10 | 0.01 to 1
8 | CCc1cc(OC)cc(OCC(N)=O)c1-c1nc2ncccn2c1Nc1c(C)cccc1C [Compound A9] | > 10 | 0.01 to 1
9 | CCNc1nnc(-c2cc(OC)cc(OC)c2-c2nc3ncccn3c2Nc2c(Cl)cccc2Cl)o1 [Compound A5, (2,6-Dichlorophenyl)-{2-[2-(5-ethylamino-1,3,4-oxadiazol-2-yl)-4,6-dimethoxy-phenyl]imidazo[1,2-a]pyrimidin-3-yl}-amine] | 1 to 10 | 0.01 to 1
